Biological target: T1, human cGAS (residues 161-522) (Homo sapiens, UniProt Q8N884)
T1 construct: Recombinantly expressed purified human cGAS (residues 161-522) was used at 25 nM; made in house
Test: cGAS Activity Assay—Malachite Green
Assay type: biochemical
Method in brief: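 Coupled malachite-green phosphate detection was used: enzyme and compound in 20 mM TRIS pH 7.5, 5 mM MgCl2, 0.01% BSA with 80 μM ATP, 80 μM GTP and 100 nM ISD DNA, 4 h at RT in the dark.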

T1 sequence (Q8N884 161-522): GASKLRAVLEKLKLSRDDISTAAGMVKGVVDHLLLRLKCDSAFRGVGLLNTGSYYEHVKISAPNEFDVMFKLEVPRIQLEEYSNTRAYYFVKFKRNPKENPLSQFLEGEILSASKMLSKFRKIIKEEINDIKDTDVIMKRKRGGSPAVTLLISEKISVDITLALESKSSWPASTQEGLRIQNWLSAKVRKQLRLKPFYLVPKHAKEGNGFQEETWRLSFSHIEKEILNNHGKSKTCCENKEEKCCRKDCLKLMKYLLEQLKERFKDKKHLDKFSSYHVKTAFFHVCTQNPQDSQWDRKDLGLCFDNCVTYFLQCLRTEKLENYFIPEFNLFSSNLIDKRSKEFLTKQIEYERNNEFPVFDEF

With `CCCc1cc(=S)n2nc(NCc3cc(-c4ccn(C)n4)ccc3Cl)nc2[nH]1` [Example 40, 2-[[2-chloro-5-(1-methylpyrazol-3-yl)phenyl]methylamino]-5-propyl-4H-[1,2,4]triazolo[1,5-a]-pyrimidine-7-thione] the IC50 was 869 nM.
